Data: patent publication US6512130B1, “Mifepristone analogue, process for the preparation thereof and use thereof” (Council of Scientific and Industrial Research, priority 2000, dated 2003)
Several values for one entry are separate records, joined by “and”; a condition that tells them apart may be missing. Equal values may be shown once.

Molecular target: T1, rabbit uterine progesterone receptor (Oryctolagus cuniculus, UniProt P06186)
T1 construct: performed using rabbit uterine cytosol and 3H progesterone (radioligand); from tissue; host or cells: uterus of immature, estradiol-dipropionate-primed rabbits; 105000 x g cytosol treated with dextran-coated charcoal
T1 sequence (P06186 1-930): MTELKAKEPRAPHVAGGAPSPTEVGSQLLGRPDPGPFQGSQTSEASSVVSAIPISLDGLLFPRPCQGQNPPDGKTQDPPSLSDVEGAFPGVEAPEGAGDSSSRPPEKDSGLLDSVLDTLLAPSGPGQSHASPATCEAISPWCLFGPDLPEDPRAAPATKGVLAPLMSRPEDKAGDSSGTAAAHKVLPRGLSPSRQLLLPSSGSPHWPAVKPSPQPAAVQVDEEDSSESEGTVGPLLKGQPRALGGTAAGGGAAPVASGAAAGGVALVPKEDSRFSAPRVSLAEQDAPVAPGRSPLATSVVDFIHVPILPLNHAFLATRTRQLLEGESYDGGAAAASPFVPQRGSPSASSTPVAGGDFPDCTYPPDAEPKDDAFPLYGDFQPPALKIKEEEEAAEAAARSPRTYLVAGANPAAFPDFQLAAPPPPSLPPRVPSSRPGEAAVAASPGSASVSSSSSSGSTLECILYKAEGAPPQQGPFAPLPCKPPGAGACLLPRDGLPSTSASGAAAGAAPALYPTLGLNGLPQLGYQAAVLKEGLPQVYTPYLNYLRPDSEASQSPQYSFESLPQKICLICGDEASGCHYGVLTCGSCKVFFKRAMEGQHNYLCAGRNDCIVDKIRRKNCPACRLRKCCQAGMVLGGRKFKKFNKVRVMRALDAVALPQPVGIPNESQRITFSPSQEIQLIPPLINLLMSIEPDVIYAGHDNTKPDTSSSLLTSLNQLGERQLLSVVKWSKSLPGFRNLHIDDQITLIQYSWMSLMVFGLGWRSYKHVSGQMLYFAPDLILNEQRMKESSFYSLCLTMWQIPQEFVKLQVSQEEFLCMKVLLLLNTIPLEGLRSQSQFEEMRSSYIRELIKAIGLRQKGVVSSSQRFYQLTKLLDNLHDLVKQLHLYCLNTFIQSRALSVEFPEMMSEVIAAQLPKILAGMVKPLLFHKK
Experiment: Competitive binding assay for progesterone receptors using rabbit uterine cytosol and 3H-progesterone
Conditions: rabbit uterine cytosol, 3H-progesterone 8×10^−9 M, 1 μM unlabelled cortisol, 4° C. 20 hours; progesterone taken as 100
Method: Crude products 3, 4, and 5 may be purified by column chromatography using silica gel, basic alumina, acidic alumina or neutral alumina as adsorbants and ethyl acetate, ethyl acetate-benzene, or ethyl acetate-chloroform as solvent systems. […] The competitive binding assay for progesterone receptors (PR) was performed using rabbit uterine cytosol and 3H progesterone (radioligand) in the presence of unlabelled cortisol at 4° C. Competitor dilutions were prepared in DMF:Tris buffer pH 7.4 (1:1). […] The activity of progesterone is taken as 100.
Animals. Immature rabbits weighing about 1 kg were administered 100 μg estradioldipropionate intramuscularly for four days and were sacrificed on the fifth day. Uteri were removed, washed with ice cold saline and weighed. Uteri were homogenised in four volumes of 50 mM Tris buffer, pH 7.4 containing 1 mM EDTA, 12 mM monothioglycerol and 10% glycerol (v/v) at 2° C. using polytron PT-10 homoniser.
The homogenate was ultracentrifuged at 105000×g for 60 minutes at 4° C. The resultant supernatant (cytosol) was treated with equal volume of dextran coated charcoal (0.5% charcoal and 0.05% dextran in TEMG buffer) for 30 minutes with occasional stirring at 0° C. DCC treated cytosol was used for binding assay.
Prior to the assay, cytosol was Incubated with 1 μM unlabelled cortisol for 30 minutes at 0° C. Aliquots of the cytosol were incubated at 4° C. for 20 hours with a constant concentration of ^3H-progesterone (8×10^−9 M) in the absence or presence of increasing concentration (1 to 10000×10^−9 M) of either unlabelled progesteroine or test compounds. ^3H-progesterone bound was measured for each incubate by the technique of charcoal adsorption.
Calculation of relative binding affinity of test compounds was done by plotting the curves between the percentage of bound titrated progesterone as a function of the iogarithm of the unlabelled progesterone concentration and as a function of logarithm of the concentration of unlabelled test compounds (FIGS. 1 and 2). […]

Relative binding affinity (%) | Compound
174.65% | CC(C)C#C[C@]1(O)CCC2C3CCC4=CC(=O)CCC4=C3C(c3ccc(N(C)C)cc3)C[C@@]21C (stereo partly drawn) [Compound 1, 11β-[4-(N,N-dimethylamino)phenyl]-17β-hydroxy-17α-(3-methyl-1-butynyl)-estra-4,9-dien-3-one]
103% and 103.44% | CC#C[C@]1(O)CC[C@H]2[C@@H]3CCC4=CC(=O)CCC4=C3[C@@H](c3ccc(N(C)C)cc3)C[C@@]21C [Compound 6, Mifepristone]
100% | CC(=O)[C@H]1CC[C@H]2[C@@H]3CCC4=CC(=O)CC[C@]4(C)[C@H]3CC[C@]12C [Progesterone]
